“Also recorded” adds a separate entry of the source.
Tests used:
PARP3 or PARPs 6–16 = experiment: 32P-NAD+ auto-PARylation selectivity screen; type: biochemical, human; conditions: 32P-NAD+ auto-PARylation screen
Procedure: Samples were analyzed via phosphorimaging.

PARP1 = target: T1, PARP1 (Gallus gallus, UniProt P26446); experiment: PARP trapping: western blot of chromatin-bound fraction of MMS-damaged DT40 cells; type: cell-based, avian; conditions: 0.05% MMS, inhibitor 0.1–10 μmol/L, 30 min
T1 construct: endogenous in cells; host or cells: DT40 cells
Procedure: Following binding of appropriate secondary antibodies labeled with IRDye® (LI-COR), image analysis and quantitation of blots was performed with Image Studio software for the LI-COR Odyssey system (version 2.1.10).

[1] = test system: DNA repair mutant DT40 cell lines; experiment: Proliferation assay in panel of isogenic DNA repair mutant DT40 cell lines (XTT); type: cell-based, avian
[2] = test system: MX-1 human breast cancer xenografts; type: in vivo
Procedure: (§1) All studies were performed according to IACUC approved protocols. The general health of mice was monitored daily. Tumor volume was determined by caliper measurements (mm), using the formula (l x w^2)/2 = mm^3, where l and w refer to the larger and smaller perpendicular dimensions collected at each measurement. Tumor dimensions were recorded twice per week starting when tumors reached an approximate size of 100 to 150 mm^3. Body weights were recorded twice per week and relative body weight was calculated as follows: Relative body weight = (body weight on day of measurement/body weight on first day of treatment).
Carboplatin combination in MX-1 orthotopic xenografts: female nude mice were implanted with MX-1 cells (0.5 × 10^6) in the thoracic mammary fat pad. Treatment started on day 3 when the average tumor size was approximately 50 mm^3. Carboplatin was administered as a single intravenous dose at 60 mg/kg on day 3 or 4.

[3] = test system: PARP activity in MDA-MB-436 tumor tissue; experiment: Pharmacodynamic PARP inhibition (PAR ELISA) in MDA-MB-436 tumor lysates; type: in vivo, mouse
Procedure: (§2) Control group (10 mice) were treated with vehicle (0.5% methyl cellulose in water). Mice were euthanized and tumors were harvested at 1, 6, 12, 24 and 36 hours post treatment (5 mice per treatment per time point). Individual tumors were removed and flash frozen in liquid nitrogen for PAR analysis. PARP inhibition was also evaluated in tumors from NCI-H460 human lung cancer subcutaneous xenografts. Control group animals (24 mice) were treated with vehicle (0.5% methyl cellulose). […] Mice were euthanized and tumors were harvested at 0.25, 1, 6, 12, 24 and 36 hours post-treatment. PAR levels were determined by ELISA using the procedure provided by Trevigen and comparing to a PAR standard curve. Protein concentration of tumor lysates was determined using the BCA assay (Thermo Scientific). Results were converted from pg PAR/assay well to ng PAR/mg protein. Data was pooled from multiple experiments. The percent of control for each time point was calculated by using an average of all control replicates from that experiment.

[4] = test system: PARP activity in NCI-H460 tumor tissue; experiment: Pharmacodynamic PARP inhibition (PAR ELISA) in NCI-H460 tumors; type: in vivo, mouse
Procedure: as §2

SW480 cells [5] = experiment: Western blot of Wnt/β-catenin pathway proteins in SW480 cells; type: cell-based, human; conditions: 10 μmol/L, 24 h
Procedure: (§3) SW480, DLD-1 (Wnt-dependent) or RKO (Wnt-independent) cells were plated in 6-well plates and incubated overnight. Cells were treated with E7449, olaparib or XAV939 and incubated for various time periods prior to processing by SDS PAGE and western blot analysis. […] Following binding of appropriate secondary antibodies labeled with IRDye® (LI-COR), image analysis was performed with Image Studio software for the LI-COR Odyssey system (version 2.1.10).

DLD-1 cells [6] = experiment: Western blot of Wnt/β-catenin pathway proteins in DLD-1 cells; type: cell-based, human; conditions: 24 h
Procedure: as §3

SW480 cells [7] = experiment: Gene expression profiling of Wnt-related genes (TLDA qPCR) in SW480 cells; type: cell-based, human; conditions: 30 μmol/L, 72 h
Procedure: (§4) Gene expression profiling was performed using a custom designed TaqMan® low density array (TLDA). Total RNA was isolated from cell lines using RNeasy Mini Kit (Qiagen) and from xenograft tumor FFPE tissue using RecoverAll Total Nucleic Acid Isolation (Ambion). Human and mouse, real-time qPCR TLDAs (384-well micro fluidic card) were designed with genes selected based on their involvement in Wnt signalling (see supplementary Tables 2 and 3 for lists of genes on TLDAs). cDNA was generated from total RNA using High Capacity cDNA Reverse Transcription kit (Life Technologies) or SuperScript® VILO™ Master Mix (Life Technologies). 100 ng cDNA was combined with TaqMan® Gene Expression Master Mix (Life Technologies) for the cell lines and TaqMan® Advanced FAST Master Mix (Life Technologies) for the xenograft tissue for each port (in duplicate). TLDAs were run based on recommended cycling times for each master mix. Ct values were calculated and imported into GeneData Analyst for further analysis. To calculate the ΔCts, gene expression was normalized to several housekeeping genes. Relative fold change was calculated by comparison to the DMSO or vehicle-treated controls for each sample. A student's t-test was used to calculate P-values and hierarchical clustering used Manhattan distance and complete linkage plotting of selected significant genes to generate heat maps.

DLD-1 cells [8] = experiment: Gene expression profiling of Wnt-related genes (TLDA qPCR) in DLD-1 cells; type: cell-based, human; conditions: 30 μmol/L, 72 h
Procedure: as §4

[9] = test system: Wnt1 (int-1) mammary tumors; experiment: Wnt1 subcutaneous mammary tumor model
Procedure: as §1
Tumor pieces cut to approximately 2 mm^3 in size were injected subcutaneously in female nude mice. Treatment was initiated approximately 9–10 days post-implantation of mice.

Wnt1 model tumors = experiment: Gene expression of Wnt-related genes in Wnt1 model tumors (mouse TLDA); type: in vivo; conditions: 7 days of drug treatment
Procedure: as §4

[10] = Gastrointestinal toxicity in preclinical studies; type: in vivo
wild type DT40 cells = experiment: cells; conditions: DT40, 48 h, read-out: IC50, cell proliferation, wild type DT40 cells
Procedure: Proliferation assays were performed in a panel of 32 isogenic DT40 cell lines, in which each line was deficient in a distinct DNA repair gene [31]. Cells were seeded and incubated with test compound at various concentrations for 2–3 days (~ 8 cell cycles). […] Each experiment was conducted in duplicate and a minimum of 3 separate experiments were performed. […] For proliferation assays cells were plated at low density in 96 well plates. […] Cell growth was assessed using the CellTiter-Glo® cell viability assay (Promega, Cat# G7573). Each experiment was conducted in duplicate and a minimum of 3 separate experiments were performed.

P-glycoprotein = test system: P-glycoprotein; design: method as in PMID 22246237; conditions: cited from earlier work
[11] = small phase 1 study; cited from earlier work

T1 sequence (P26446 whole entry): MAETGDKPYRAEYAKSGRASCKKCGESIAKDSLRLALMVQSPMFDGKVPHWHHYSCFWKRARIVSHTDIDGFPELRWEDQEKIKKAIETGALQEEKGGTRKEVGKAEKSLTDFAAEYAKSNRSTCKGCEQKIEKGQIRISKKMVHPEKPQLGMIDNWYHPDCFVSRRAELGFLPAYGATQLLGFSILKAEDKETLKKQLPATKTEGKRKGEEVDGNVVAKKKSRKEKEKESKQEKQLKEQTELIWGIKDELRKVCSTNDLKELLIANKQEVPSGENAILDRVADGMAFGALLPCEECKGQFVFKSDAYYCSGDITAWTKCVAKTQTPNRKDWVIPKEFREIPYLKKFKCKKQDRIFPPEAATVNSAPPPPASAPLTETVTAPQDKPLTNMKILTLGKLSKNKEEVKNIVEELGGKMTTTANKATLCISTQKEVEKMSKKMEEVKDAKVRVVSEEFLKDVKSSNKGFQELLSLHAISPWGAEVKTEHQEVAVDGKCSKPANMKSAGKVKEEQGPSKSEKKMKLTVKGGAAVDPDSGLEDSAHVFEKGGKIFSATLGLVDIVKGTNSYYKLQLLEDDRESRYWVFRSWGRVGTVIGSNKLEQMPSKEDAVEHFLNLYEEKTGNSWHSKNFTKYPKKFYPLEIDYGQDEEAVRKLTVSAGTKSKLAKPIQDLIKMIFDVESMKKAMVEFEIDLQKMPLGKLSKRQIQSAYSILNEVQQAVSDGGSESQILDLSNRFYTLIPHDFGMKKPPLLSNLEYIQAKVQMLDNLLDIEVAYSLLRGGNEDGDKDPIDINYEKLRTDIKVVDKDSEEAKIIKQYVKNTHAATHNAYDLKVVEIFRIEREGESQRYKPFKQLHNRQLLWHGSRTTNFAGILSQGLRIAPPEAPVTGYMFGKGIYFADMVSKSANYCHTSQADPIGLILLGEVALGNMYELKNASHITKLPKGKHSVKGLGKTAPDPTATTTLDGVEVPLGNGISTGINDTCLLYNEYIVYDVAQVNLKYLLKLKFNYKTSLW

## O=c1[nH]nc2c3c(cccc13)N=C(CN1Cc3ccccc3C1)N2 [E7449, 8-(isoindolin-2-ylmethyl)-2,9-dihydro-3H-pyridazino[3,4,5-de]quinazolin-3-one]
PARP3 or PARPs 6–16
  inhibitory activity on PARP3 or PARPs 6–16: Significant inhibitory activity was not observed
PARP1
  PARP1 trapping onto chromatin: binding of PARP1 to chromatin in a dose responsive manner
[1]; KU70, PKCS, LIGIV deficient DT40
  sensitivity of cell lines deficient in NHEJ repair: Resistance
[1]; POLQ deficient DT40
  effect of loss of POLQ on sensitivity: no effect
[1]; versus wild type DT40
  sensitivity of DT40 cells lacking PARP expression: significantly resistant
[2]; E7449 100 mg/kg + carboplatin 60 mg/kg
  tolerability of combination with carboplatin: well tolerated with no signs of toxicity or significant body weight loss
[2]; E7449 100 mg/kg once daily + carboplatin 60 mg/kg i.v.
  antitumor activity, E7449 started 1 day post-carboplatin: closely resembled that observed with carboplatin alone
[2]; E7449 100 mg/kg once daily + carboplatin 60 mg/kg i.v. single dose
  antitumor activity, E7449 simultaneously with or prior to carboplatin: enhanced the antitumor activity of carboplatin
[2]; E7449 100 mg/kg oral once daily, carboplatin single i.v. dose 60 mg/kg
  antitumor activity, single agent: inactive; also recorded: No antitumor activity
[3]; single dose 30 mg/kg
  time of partial rebound of PARP activity: ≤ 12 h
[3]; single dose 100 mg/kg
  duration of significant PARP inhibition in tumor: at least 12 hours
  time of recovery of PARP activity to basal levels: ≤ 24 h
[4]; single dose 1 mg/kg (lowest), 0.25 and 1 hour
  PARP inhibition in tumor at early time points: significant PARP inhibition
[4]; single dose 100 mg/kg
  duration of complete PARP inhibition: up to 12 hours
  time of rebound in PARP activity: 24 h
[4]; single dose 1 and 3 mg/kg
  time of at least partial recovery of PARP activity to basal levels: ≤ 6 h
SW480 cells [5]
  Cyclin D1 protein levels: modest decrease
  axin2 protein level: significant increase
  reduction of active (non-phosphorylated) β-catenin level: ~ 70%
  reduction of total β-catenin level: ~50%
DLD-1 cells [6]
  effect on levels of β-catenin: robust effect on levels of β-catenin was not observed
SW480 cells [7]
  number of Wnt-related genes with significantly altered expression: 30 genes
DLD-1 cells [8]
  number of Wnt-related genes with significantly altered expression: 40 genes
[9]; E7449 100 mg/kg + E6201 40 mg/kg
  effect of adding E7449 to E6201 on body weight loss: did not impact body weight loss
[9]; E7449 100 mg/kg once daily, Wnt-C59 10 mg/kg once daily, E6201 40 mg/kg i.v. Q4Dx3
  tumor growth, single agent: did not inhibit tumor growth; also recorded: No antitumor effect
[9]; E7449 100 mg/kg oral once daily + E6201 40 mg/kg i.v. Q4Dx3
  antitumor activity, combination of E7449 and E6201: Antitumor activity was enhanced; also recorded: synergistic inhibition of tumor growth
[9]; E7449 100 mg/kg, Wnt-C59 10 mg/kg once daily
  tolerability (body weight loss), single agent: well tolerated with minimal toxicity
Wnt1 model tumors
  expression of Wnt-related genes CAR2, FZD9, LEF1, VIL1 in tumors: also altered in tumors from E7449-treated mice, albeit to a lesser extent
[10]
  gastrointestinal toxicity: no gastrointestinal toxicity was observed
Wild type DT40 cells
  IC50: 3.2 µM
P-glycoprotein
  P-glycoprotein substrate: not a substrate for P-glycoprotein
[11]
  dose-limiting toxicity: fatigue
  tolerability in cancer patients: generally well tolerated

Reference: publication PMC4747407 (Oncotarget, 2015)
